Melting point data for 32 molecules are collected here from patent US20050171195A1, “P2X7 antagonists for treating neuropathic pain” (priority 2003, published 2005).

A word on the melting point: it is the temperature, or range, at which the solid turns liquid.

In turn, `Cc1ncccc1NC(=NC#N)NC(NC(=O)CCCCc1ccccc1)C(C)(C)C` (centres unmarked) [Example 5, N-[1-({(cyanoimino)[(2-methyl-3-pyridinyl)amino]methyl}amino)-2,2-dimethylpropyl]-5-phenylpentanamide] yielded a melting point of 133 to 134 °C.
In the case of `CC(C)(C)C(NC(=O)Cc1ccc(Cl)cc1)NC(=NC#N)Nc1cccnc1Cl` (centres unmarked) [Example 26, 2-(4-chlorophenyl)-N-(1-{[[(2-chloro-3-pyridinyl)amino](cyanoimino)methyl]amino}-2,2-dimethylpropyl)acetamide], the melting point is 174 to 175 °C.
The molecule `COc1ccc(NC(=NC#N)NC(NC(=O)Cc2ccc(OC)c(OC)c2)C(C)(C)C)c(OC)n1` (centres unmarked) [Example 27, N-[1-({(cyanoimino)[(2,6-dimethoxy-3-pyridinyl)amino]methyl}amino)-2,2-dimethylpropyl]-2-(3,4-dimethoxyphenyl)acetamide] displayed a melting point of 162 to 163 °C.
Consider `Cc1ncccc1NC(=NC#N)NC(NC(=O)CCCc1cccs1)C(C)(C)C` (centres unmarked) [Example 7, N-[1-({(cyanoimino)[(2-methyl-3-pyridinyl)amino]methyl}amino)-2,2-dimethylpropyl]-4-(2-thienyl)butanamide], for which the melting point was 66 to 68 °C.
Then `CC(C)(C)C(NC(=O)Cc1ccc(C#N)cc1)NC(=NC#N)Nc1cccc2ncccc12` (centres unmarked) [Example 41, N-(1-{[(cyanoimino)(5-quinolinylamino)methyl]amino}-2,2-dimethylpropyl)-2-(4-cyanophenyl)acetamide], with 194.5 to 195.5 °C; and `COc1ccc(CC(=O)NC(NC(=NC#N)Nc2ccccc2Cl)C(C)(C)C)cc1OC` (centres unmarked) [Example 20, N-(1-{[[(2-chlorophenyl)amino](cyanoimino)methyl]amino}-2,2-dimethylpropyl)-2-(3,4-dimethoxyphenyl)acetamide], with 135 to 136 °C.
Then `Cc1ccccc1NC(=NC#N)NC(NC(=O)Cc1ccc2c(c1)OCO2)C(C)(C)C` (centres unmarked) [Example 15, 2-(1,3-benzodioxol-5-yl)-N-[1-({(cyanoimino)[(2-methylphenyl)amino]methyl}amino)-2,2-dimethylpropyl]acetamide], with 152 to 153 °C; and `COc1ccc(CC(=O)NC(NC(=NC#N)Nc2cc(Cl)ccc2F)C(C)(C)C)cc1OC` (centres unmarked) [Example 23, N-(1-{[[(5-chloro-2-fluorophenyl)amino](cyanoimino)methyl]amino}-2,2-dimethylpropyl)-2-(3,4-dimethoxyphenyl)acetamide], with 187 to 188 °C; and `COc1ccc(CC(=O)NC(NC(=NC#N)Nc2cccnc2OC)C(C)(Cl)Cl)cc1OC` (centres unmarked) [Example 54, N-[2,2-dichloro-1-({(cyanoimino)[(2-methoxy-3-pyridinyl)amino]methyl}amino)propyl]-2-(3,4-dimethoxyphenyl)acetamide], with 188 to 190 °C.
In turn, `Cc1ncccc1NC(=NC#N)NC(NC(=O)Cc1ccc(Cl)cc1)C(C)(C)C` (centres unmarked) [Example 2, 2-(4-chlorophenyl)-N-[1-({(cyanoimino)[(2-methyl-3-pyridinyl)amino]methyl}amino)-2,2-dimethylpropyl]acetamide] registered a melting point of 180 to 181 °C.
On to `COc1ccc(CC(=O)NC(NC(=NC#N)Nc2cc(F)ccc2F)C(C)(C)C)cc1OC` (centres unmarked) [Example 19, N-[1-({(cyanoimino)[(2,5-difluorophenyl)amino]methyl}amino)-2,2-dimethylpropyl]-2-(3,4-dimethoxyphenyl)acetamide], for which the melting point fell in the range of 190 to 191 °C.
For `COc1ccc(CC(=O)NC(NC(=NC#N)Nc2ccccc2C)C(C)(C)C)cc1` (centres unmarked) [Example 14, N-[1-({(cyanoimino)[(2-methylphenyl)amino]methyl}amino)-2,2-dimethylpropyl]-2-(4-methoxyphenyl)acetamide] the value was 174 °C.
Then `CC(C)(C)C(NC(=O)Cc1ccc2ccccc2c1)NC(=NC#N)Nc1cccc2ncccc12` (centres unmarked) [Example 36, N-(1-{[(cyanoimino)(5-quinolinylamino)methyl]amino}-2,2-dimethylpropyl)-2-(2-naphthyl)acetamide], with 200 to 201 °C; and `Cc1ccc2c(NC(=NC#N)NC(NC(=O)Cc3ccc(Cl)cc3)C(C)(C)C)cccc2n1` (centres unmarked) [Example 44, 2-(4-chlorophenyl)-N-[1-({(cyanoimino)[(2-methyl-5-quinolinyl)amino]methyl}amino)-2,2-dimethylpropyl]acetamide], with 198 to 199 °C; and `CC(C)(C)C(NC(=O)Cc1ccc(Cl)cc1)NC(=NC#N)Nc1cccc2cnsc12` (centres unmarked) [Example 45, N-(1-{[(1,2-benzisothiazol-7-ylamino)(cyanoimino)methyl]amino}-2,2-dimethylpropyl)-2-(4-chlorophenyl)acetamide], with 135 to 137 °C.
Regarding `CN1CCCc2c(NC(=NC#N)NC(NC(=O)Cc3ccc(Cl)cc3)C(C)(C)C)cccc21` (centres unmarked) [Example 43, 2-(4-chlorophenyl)-N-[1-({(cyanoimino)[(1-methyl-1,2,3,4-tetrahydro-5-quinolinyl)amino]methyl}amino)-2,2-dimethylpropyl]acetamide], the melting point lay within 114 to 117 °C.
For the molecule `CCc1ncccc1NC(=NC#N)NC(NC(=O)Cc1ccc(Cl)cc1)C(C)(C)C` (centres unmarked) [Example 9, 2-(4-chlorophenyl)-N-[1-({(cyanoimino)[(2-ethyl-3-pyridinyl)amino]methyl}amino)-2,2-dimethylpropyl]acetamide], the melting point lay within 112 to 114 °C.
For `COc1ccc(CC(=O)NC(NC(=NC#N)Nc2cccnc2OC)C(C)(C)C)cc1OC` (centres unmarked) [Example 24, N-[1-({(cyanoimino)[(2-methoxy-3-pyridinyl)amino]methyl}amino)-2,2-dimethylpropyl]-2-(3,4-dimethoxyphenyl)acetamide] the value was 146 to 147 °C; for `Cc1ccccc1NC(=NC#N)NC(NC(=O)Cc1ccc(Cl)cc1)C(C)(C)C` (centres unmarked) [Example 17, 2-(4-chlorophenyl)-N-[1-({(cyanoimino)[(2-methylphenyl)amino]methyl}amino)-2,2-dimethylpropyl]acetamide], 181 to 182 °C; for `COc1ccc(CC(=O)NC(NC(=NC#N)Nc2c(F)cc(F)cc2F)C(C)(C)C)cc1OC` (centres unmarked) [Example 22, N-[1-({(cyanoimino)[(2,4,6-trifluorophenyl)amino]methyl}amino)-2,2-dimethylpropyl]-2-(3,4-dimethoxyphenyl)acetamide], 170 to 171 °C.
For `COc1cc(OC)cc(C(=O)NC(NC(=NC#N)Nc2cccnc2OC)C(C)(Cl)Cl)c1` (centres unmarked) [Example 50, N-[2,2-dichloro-1-({(cyanoimino)[(2-methoxy-3-pyridinyl)amino]methyl}amino)propyl]-3,5-dimethoxybenzamide] the value was 198 to 199 °C; for `CC(C)(C)C(NC(=O)Cc1ccc2c(c1)OCCO2)NC(=NC#N)Nc1cccc2ncccc12` (centres unmarked) [Example 38, N-(1-{[(cyanoimino)(5-quinolinylamino)methyl]amino}-2,2-dimethylpropyl)-2-(2,3-dihydro-1,4-benzodioxin-6-yl)acetamide], 191 to 192 °C.
`COc1ccc(CCCC(=O)NC(NC(=NC#N)Nc2cccnc2C)C(C)(C)C)cc1` (centres unmarked) [Example 3, N-[1-({(cyanoimino)[(2-methyl-3-pyridinyl)amino]methyl}amino)-2,2-dimethylpropyl]-4-(4-methoxyphenyl)butanamide] had a melting point of 65 to 68 °C.
Then `CC(C)(C)C(NC(=O)Cc1ccc2cccnc2c1)NC(=NC#N)Nc1cccc2ncccc12` (centres unmarked) [Example 39, N-(1-{[(cyanoimino)(5-quinolinylamino)methyl]amino}-2,2-dimethylpropyl)-2-(7-quinolinyl)acetamide], with 147 to 148 °C; and `COc1ccc(CC(=O)NC(NC(=NC#N)Nc2cc(C)ccc2C)C(C)(C)C)cc1OC` (centres unmarked) [Example 21, N-[1-({(cyanoimino)[(2,5-dimethylphenyl)amino]methyl}amino)-2,2-dimethylpropyl]-2-(3,4-dimethoxyphenyl)acetamide], with 93 to 94 °C.
`Cc1ccc(CC(=O)NC(NC(=NC#N)Nc2cccnc2C)C(C)(C)C)cc1F` (centres unmarked) [Example 4, N-[1-({(cyanoimino)[(2-methyl-3-pyridinyl)amino]methyl}amino)-2,2-dimethylpropyl]-2-(3-fluoro-4-methylphenyl)acetamide] showed a melting point of 75 to 77 °C.
Then `CSc1ccc(CC(=O)NC(NC(=NC#N)Nc2cccnc2C)C(C)(C)C)cc1` (centres unmarked) [Example 8, N-[1-({(cyanoimino)[(2-methyl-3-pyridinyl)amino]methyl}amino)-2,2-dimethylpropyl]-2-[4-(methylthio)phenyl]acetamide], with 172 to 173 °C.
Consider `CC(C)(C)C(NC(=O)Cc1ccc2ncccc2c1)NC(=NC#N)Nc1cccc2ncccc12` (centres unmarked) [Example 40, N-(1-{[(cyanoimino)(5-quinolinylamino)methyl]amino}-2,2-dimethylpropyl)-2-(6-quinolinyl)acetamide], for which the melting point lay within 150 to 151 °C.
In turn, `Cc1ncccc1NC(=NC#N)NC(NC(=O)Cc1ccc(F)cc1)C(C)(C)C` (centres unmarked) [Example 6, N-[1-({(cyanoimino)[(2-methyl-3-pyridinyl)amino]methyl}amino)-2,2-dimethylpropyl]-2-(4-fluorophenyl)acetamide] displayed a melting point of 166 to 167 °C.
Then `CSc1ccc(CC(=O)NC(NC(=NC#N)Nc2ccccc2C)C(C)(C)C)cc1` (centres unmarked) [Example 16, N-[1-({(cyanoimino)[(2-methylphenyl)amino]methyl}amino)-2,2-dimethylpropyl]-2-[4-(methylthio)phenyl]acetamide], with 151 to 152 °C; and `CC(C)(C)C(NC(=O)CCCc1cccnc1)NC(=NC#N)Nc1cccc2ncccc12` (centres unmarked) [Example 42, N-(1-{[(cyanoimino)(5-quinolinylamino)methyl]amino}-2,2-dimethylpropyl)-4-(3-pyridinyl)butanamide], with 181 to 182 °C.
Then `CC(C)(C)C(NC(=O)Cc1ccc(Cl)cc1)NC(=NC#N)Nc1cccc2ncccc12` (centres unmarked) [Example 32, 2-(4-chlorophenyl)-N-(1-{[(cyanoimino)(5-quinolinylamino)methyl]amino}-2,2-dimethylpropyl)acetamide], with 195 to 196 °C.
